Literature values in PMC9851200, “Multiparameter phenotypic screening for endogenous TFEB and TFE3 translocation identifies novel chemical series modulating lysosome function” (Autophagy, 2022).

Experiments:
Parameters in all cases: method as in original PKIS2 published data
[1] = target: kinases (KINOMEscan panel) (Homo sapiens, UniProt P21860); details: ERBB3; Published KINOMEscan; ref original PKIS2 published data; cited from earlier work
[2] = target: kinases (KINOMEscan panel) (Homo sapiens, UniProt P30291); details: WEE1; Published KINOMEscan; ref original PKIS2 published data; cited from earlier work
kinases (KINOMEscan panel) (Homo sapiens, UniProt P30291), sequence (P30291 whole entry): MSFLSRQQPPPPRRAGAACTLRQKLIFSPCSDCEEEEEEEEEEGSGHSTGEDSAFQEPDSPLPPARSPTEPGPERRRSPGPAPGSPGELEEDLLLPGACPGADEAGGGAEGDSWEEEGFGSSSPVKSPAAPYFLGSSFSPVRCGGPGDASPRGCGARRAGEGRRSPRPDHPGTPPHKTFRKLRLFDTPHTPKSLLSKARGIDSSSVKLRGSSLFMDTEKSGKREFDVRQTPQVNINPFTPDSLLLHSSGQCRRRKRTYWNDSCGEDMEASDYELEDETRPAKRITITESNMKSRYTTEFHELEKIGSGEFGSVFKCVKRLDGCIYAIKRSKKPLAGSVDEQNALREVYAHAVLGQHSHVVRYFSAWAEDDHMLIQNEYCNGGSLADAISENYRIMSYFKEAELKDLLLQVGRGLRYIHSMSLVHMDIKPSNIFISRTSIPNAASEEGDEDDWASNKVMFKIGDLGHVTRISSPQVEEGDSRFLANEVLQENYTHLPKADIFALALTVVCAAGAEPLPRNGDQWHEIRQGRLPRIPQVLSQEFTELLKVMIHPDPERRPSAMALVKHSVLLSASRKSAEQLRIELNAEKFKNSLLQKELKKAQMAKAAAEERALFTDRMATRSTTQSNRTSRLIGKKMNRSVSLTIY

[3] = target: T1, kinases (KINOMEscan panel) (Homo sapiens, UniProt P35626); details: GRK3; Published KINOMEscan; ref original PKIS2 published data; cited from earlier work
T1 sequence (P35626 1-688): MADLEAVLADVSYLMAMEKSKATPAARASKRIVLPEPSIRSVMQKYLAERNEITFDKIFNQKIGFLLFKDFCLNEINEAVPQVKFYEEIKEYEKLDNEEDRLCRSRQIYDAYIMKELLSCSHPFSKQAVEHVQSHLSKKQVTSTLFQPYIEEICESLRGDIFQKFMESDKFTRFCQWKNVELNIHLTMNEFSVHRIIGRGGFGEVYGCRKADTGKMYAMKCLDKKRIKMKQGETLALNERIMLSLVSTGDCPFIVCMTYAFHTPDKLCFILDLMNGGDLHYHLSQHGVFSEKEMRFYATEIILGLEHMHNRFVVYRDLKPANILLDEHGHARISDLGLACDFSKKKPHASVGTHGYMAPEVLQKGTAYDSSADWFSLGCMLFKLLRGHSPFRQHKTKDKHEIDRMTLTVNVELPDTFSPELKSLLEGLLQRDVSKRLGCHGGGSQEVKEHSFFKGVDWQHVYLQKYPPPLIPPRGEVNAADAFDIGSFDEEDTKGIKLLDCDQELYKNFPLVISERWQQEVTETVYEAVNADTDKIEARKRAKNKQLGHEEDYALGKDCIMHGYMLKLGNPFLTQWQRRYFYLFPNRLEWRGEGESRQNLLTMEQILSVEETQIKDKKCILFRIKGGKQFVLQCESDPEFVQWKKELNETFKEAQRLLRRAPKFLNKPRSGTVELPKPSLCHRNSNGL

[4] = target: kinases (KINOMEscan panel) (Homo sapiens, UniProt O43353); details: RIPK2; Published KINOMEscan; ref original PKIS2 published data; cited from earlier work
kinases (KINOMEscan panel) (Homo sapiens, UniProt O43353), sequence (O43353 whole entry): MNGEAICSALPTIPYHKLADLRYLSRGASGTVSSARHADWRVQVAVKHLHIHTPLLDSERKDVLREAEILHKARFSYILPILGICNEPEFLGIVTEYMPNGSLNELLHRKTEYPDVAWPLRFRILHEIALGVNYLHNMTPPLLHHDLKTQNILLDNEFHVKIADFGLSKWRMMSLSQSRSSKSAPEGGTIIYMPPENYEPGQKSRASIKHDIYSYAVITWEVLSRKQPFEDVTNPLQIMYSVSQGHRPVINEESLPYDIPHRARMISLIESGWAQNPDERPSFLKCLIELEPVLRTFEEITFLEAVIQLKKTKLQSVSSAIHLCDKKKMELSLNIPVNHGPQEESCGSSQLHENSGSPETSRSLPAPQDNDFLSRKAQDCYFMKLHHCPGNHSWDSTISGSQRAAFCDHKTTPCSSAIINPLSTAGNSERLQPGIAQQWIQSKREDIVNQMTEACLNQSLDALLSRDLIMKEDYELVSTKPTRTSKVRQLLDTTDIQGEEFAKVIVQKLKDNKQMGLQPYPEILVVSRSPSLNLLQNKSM

[5] = target: T2, kinases (KINOMEscan panel) (Homo sapiens, UniProt Q8TD19); details: NEK9; Published KINOMEscan; ref original PKIS2 published data; cited from earlier work
T2 sequence (Q8TD19 1-979): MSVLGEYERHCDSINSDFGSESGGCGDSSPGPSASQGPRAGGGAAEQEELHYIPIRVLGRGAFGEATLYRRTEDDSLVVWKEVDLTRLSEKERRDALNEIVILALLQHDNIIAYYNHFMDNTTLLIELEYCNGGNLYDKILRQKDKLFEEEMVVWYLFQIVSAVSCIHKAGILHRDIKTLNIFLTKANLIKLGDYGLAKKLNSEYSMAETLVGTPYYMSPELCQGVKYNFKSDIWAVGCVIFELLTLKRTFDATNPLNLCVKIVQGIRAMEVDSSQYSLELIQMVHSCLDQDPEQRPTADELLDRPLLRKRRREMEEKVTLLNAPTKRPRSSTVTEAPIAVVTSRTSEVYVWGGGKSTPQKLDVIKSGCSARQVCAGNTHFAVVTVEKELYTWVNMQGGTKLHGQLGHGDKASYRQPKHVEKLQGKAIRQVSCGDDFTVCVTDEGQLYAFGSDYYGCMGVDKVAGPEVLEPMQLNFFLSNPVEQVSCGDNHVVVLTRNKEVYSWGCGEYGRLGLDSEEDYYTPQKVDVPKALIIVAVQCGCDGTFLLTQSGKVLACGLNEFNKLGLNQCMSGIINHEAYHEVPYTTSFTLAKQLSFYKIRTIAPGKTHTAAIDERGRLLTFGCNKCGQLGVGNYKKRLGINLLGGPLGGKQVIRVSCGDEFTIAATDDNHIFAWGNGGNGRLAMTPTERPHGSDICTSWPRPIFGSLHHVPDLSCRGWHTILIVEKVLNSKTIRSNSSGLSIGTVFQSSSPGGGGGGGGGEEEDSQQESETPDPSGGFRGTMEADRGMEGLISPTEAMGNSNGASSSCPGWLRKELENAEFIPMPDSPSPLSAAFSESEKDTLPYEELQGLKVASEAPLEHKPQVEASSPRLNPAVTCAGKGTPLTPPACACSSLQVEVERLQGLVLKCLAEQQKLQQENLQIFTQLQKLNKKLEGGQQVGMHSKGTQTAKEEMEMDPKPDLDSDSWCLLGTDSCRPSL

[6] = target: kinases (KINOMEscan panel) (Homo sapiens, UniProt Q8NI60); details: COQ8A; Published KINOMEscan; ref original PKIS2 published data; cited from earlier work
kinases (KINOMEscan panel) (Homo sapiens, UniProt Q8NI60), sequence (Q8NI60 163-647): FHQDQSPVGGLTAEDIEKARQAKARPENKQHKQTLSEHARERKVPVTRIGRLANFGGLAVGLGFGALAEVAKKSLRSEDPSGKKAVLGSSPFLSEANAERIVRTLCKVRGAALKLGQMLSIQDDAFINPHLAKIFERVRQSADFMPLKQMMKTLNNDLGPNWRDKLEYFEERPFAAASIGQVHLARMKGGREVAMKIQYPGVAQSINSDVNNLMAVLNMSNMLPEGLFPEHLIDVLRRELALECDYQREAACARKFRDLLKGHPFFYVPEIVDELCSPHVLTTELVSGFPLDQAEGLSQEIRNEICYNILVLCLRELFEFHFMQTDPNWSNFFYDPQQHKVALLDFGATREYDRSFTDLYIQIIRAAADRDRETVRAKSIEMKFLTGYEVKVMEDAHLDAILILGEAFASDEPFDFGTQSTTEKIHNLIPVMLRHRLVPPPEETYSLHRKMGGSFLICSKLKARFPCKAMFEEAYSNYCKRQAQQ

kinases (KINOMEscan panel) (Homo sapiens, UniProt P21860), sequence (P21860 20-1342): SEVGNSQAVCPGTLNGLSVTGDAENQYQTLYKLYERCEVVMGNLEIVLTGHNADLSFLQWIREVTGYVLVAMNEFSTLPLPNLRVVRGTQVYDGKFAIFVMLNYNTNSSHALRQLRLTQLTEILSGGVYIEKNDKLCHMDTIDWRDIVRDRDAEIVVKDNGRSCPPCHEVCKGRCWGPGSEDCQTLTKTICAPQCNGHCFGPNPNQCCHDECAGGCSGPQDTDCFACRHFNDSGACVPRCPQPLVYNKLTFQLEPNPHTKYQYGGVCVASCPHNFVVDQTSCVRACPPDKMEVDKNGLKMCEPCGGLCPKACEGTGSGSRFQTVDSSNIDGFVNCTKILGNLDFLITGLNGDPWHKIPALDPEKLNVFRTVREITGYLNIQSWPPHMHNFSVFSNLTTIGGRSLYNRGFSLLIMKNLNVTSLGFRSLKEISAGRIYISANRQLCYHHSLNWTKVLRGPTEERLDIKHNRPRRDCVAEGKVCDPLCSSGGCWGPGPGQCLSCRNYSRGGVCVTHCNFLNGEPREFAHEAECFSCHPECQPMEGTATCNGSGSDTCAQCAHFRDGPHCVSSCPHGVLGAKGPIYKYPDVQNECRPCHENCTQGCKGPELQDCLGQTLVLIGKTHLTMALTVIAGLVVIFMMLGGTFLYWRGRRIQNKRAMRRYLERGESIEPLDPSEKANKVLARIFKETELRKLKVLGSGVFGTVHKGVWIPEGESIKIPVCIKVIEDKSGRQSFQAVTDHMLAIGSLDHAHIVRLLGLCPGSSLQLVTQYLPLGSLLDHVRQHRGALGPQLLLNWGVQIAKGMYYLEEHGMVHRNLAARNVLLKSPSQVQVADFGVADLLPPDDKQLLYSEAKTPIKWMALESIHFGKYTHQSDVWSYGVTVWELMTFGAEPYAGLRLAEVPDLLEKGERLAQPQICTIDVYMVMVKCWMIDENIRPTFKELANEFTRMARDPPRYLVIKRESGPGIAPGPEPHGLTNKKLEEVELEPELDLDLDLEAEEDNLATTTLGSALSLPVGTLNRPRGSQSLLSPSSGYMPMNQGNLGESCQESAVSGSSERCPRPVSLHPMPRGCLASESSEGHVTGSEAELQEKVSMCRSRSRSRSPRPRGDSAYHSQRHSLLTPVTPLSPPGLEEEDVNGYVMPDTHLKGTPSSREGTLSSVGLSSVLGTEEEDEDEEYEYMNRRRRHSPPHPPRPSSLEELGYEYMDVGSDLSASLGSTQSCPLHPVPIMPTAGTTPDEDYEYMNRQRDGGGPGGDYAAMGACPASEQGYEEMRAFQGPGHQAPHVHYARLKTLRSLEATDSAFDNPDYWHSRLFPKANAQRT

SMILES: Cc1cccc(-c2nc(Nc3ccncc3)c3ccccc3n2)n1 [NK215]
- KINOMEscan ERBB3 [1]: 43
- KINOMEscan WEE1 [2]: 23
- KINOMEscan GRK3 [3]: 0
- KINOMEscan RIPK2 [4]: 71
- KINOMEscan NEK9 [5]: 0
- KINOMEscan COQ8A [6]: 27
